How the values were obtained:
[1] = biological target: T1, human A1-adenosine receptor (Homo sapiens, UniProt P30542); assay: Functional assay measuring the cAMP level in CHO cells expressing the human A1-adenosine receptor; format: cell-based
T1 construct: expressed in transfected cells; host or cells: CHO cells (hCHO-A1 clone)
T1 sequence (P30542 1-326): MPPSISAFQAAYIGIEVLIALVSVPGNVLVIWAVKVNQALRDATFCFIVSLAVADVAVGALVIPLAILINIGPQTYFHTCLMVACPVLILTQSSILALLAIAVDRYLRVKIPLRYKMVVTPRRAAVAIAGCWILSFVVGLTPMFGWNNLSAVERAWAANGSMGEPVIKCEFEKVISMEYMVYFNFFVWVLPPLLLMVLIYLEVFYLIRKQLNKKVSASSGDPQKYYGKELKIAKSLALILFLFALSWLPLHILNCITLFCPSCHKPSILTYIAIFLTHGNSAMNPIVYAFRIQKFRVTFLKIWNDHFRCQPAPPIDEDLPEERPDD
Experimental: Measurement of cAMP Enhancement in CHO Cells (Functional Assay):
Allosteric enhancement is measured as the action of a test compound at different concentrations (0.01, 0.1, 1 and 10 μM) to reduce the cAMP content of hCHO-A1 cells. To initiate an experiment, growth medium is removed from the 12-well plates and cells are washed once with warm Hanks' buffered saline. The wash solution is then removed and replaced with fresh Hanks' solution containing forskolin (1 μM), rolipram (20 μM), N^6-cyclopentyladenosine (CPA, 0.01 nM), adenosine deaminase (2 U/mL), and the test compound. Forskolin is used to stimulate the activity of adenylyl cyclase, rolipram to inhibit cAMP phosphodiesterase, adenosine deaminase to degrade endogenous adenosine, and CPA to cause a small increase of the number of activated adenosine receptors. […] The content of cAMP in acidified extracts of cells is determined by radioimmunoassay as previously described (Kollias-Baker et al. J. Pharmacol. Exp. Ther. 1997, 281, 761-768). Because the magnitude of the effects of allosteric modulators on hCHO-A1 cells change subtly with passage number and differ slightly among different aliquots of cells, the actions of the test compounds and the action of a reference compound (PD 81,723) are assessed in each experiment. […]

[2] = biological target: T1, human A1-adenosine receptor; assay: Saturation binding of [3H]CCPA to hCHO-A1 membranes (BMAX)
Experimental: Membrane Preparation from CHO Cells Transfected with the Human Recombinant A1, A2A and A3 Adenosine Receptors:
The hCHO-A1, hCHO-A2A and hCHO-A3 cell clones are grown adherently and maintained in Dulbecco's modified Eagle's medium with nutrient mixture F12, containing 10% fetal calf serum, penicillin (100 U/mL), streptomycin (100 μg/mL), L-glutamine (2 mM), geneticine (G418, 0.2 mg/mL) at 37° C. in 5% CO2/95% air (Klotz et al. Naunyn-Schmied. Arch Pharm. 1998, 357, 1-9). Cells are split two or three times weekly at a ratio of between 1:5 and 1:10. For membrane preparation the culture medium is removed. […] The protein concentration is determined according to a Bio-Rad method (Bradford, 1976) with bovine albumin as a standard reference. […]
To determine the effect of the compounds of the present invention on the binding to A1, A2A and A3 receptors, membranes from hCHO-A1, hCHO-A2A, hCHO-A3 are incubated in a buffer solution in the absence and in the presence of the examined compounds. […] Bound and free radioactivity are separated by filtering the assay mixture through Whatman GF/B glass fibre filters using a Micro-mate 196 cell harvester (Packard Instrument Company). The filter bound radioactivity was counted on Top Count Microplate Scintillation Counter (efficacy 57%) with Micro-Scint 20. […]

Structure (SMILES): Nc1scc(CN2CCN(c3ccc(Cl)cc3)CC2)c1C(=O)c1ccc(Cl)cc1 [Example 4, {2-Amino-4-[4-((4-chlorophenyl)piperazin-1-yl)methyl]thiophen-3-yl}(4-chlorophenyl)methanone]
- IC50 [1]: ~0.1 µM
- increase of the BMAX value of the agonist [3H]CCPA ([2]; at 10 μM concentration, human A1 adenosine receptors): up to 600%

Structure (SMILES): Nc1scc(CN2CCC3(CC2)Oc2cccc(F)c2O3)c1C(=O)c1ccc(Cl)cc1 [Example 60, {2-Amino-4-(4-fluorospiro[benzo[d][1,3]-dioxole-2,4′-piperidine]-1′-ylmethyl)thiophen-3-yl}(4-chlorophenyl)methanone]
- increase in the BMAX value of the agonist [3H]CCPA [2]: about 6 fold

Structure (SMILES): Cc1sc(N)c(C(=O)c2ccc(Cl)cc2)c1CN1CCN(c2cccc(F)c2)CC1 [Example 88, {2-Amino-4-[(4-(3-fluorophenyl)piperazin-1-yl)methyl]-5-methylthiophen-3-yl}(4-chlorophenyl)methanone]
- melting point: 140 to 141 °C

Source: US7855209B2, “Allosteric modulators of the A1 adenosine receptor” (King Pharmaceuticals Research and Development, Inc., priority 2006, dated 2010)
